Read-outs that look alike come from different tables or passages of the source. Some results are limits rather than exact numbers.

Test [1] has as its system IPC-298 (NRAS Q61L) cell line. Description: IPC-298 P-ERK cell activation assay (AlphaScreen). Format: cell-based, human. The note with it: Homo sapiens, P-ERK cell activation, IPC-298, read-out: Cell activity (EC50 μM) IPC-298_P-ERK. The protocol:
(§1) B9 is a squamous cell carcinoma cell line expressing activated HRAS that was isolated from a DMBA/TPA-induced mouse model of skin carcinogenesis (Stoler, et al. The Journal of Cell Biology, 1993, 122(5), 1103-17). IPC-298 is a human melanoma cell line that expresses activated NRAS (Aubert, et al. International Journal of Cancer, 1993, 54(5), 784-92). To determine whether compounds induce phosphorylated ERK and MEK, cells are plated in a 96-well dish and treated with an 8-point titration of compound for one hour at 37° C. The media is then removed and the cells are incubated with lysis buffer containing protease and phosphatase inhibitors. Phosphorylated ERK and MEK in the resulting lysates is detected using AlphaScreen™ technology. To detect phosphorylated ERK, cell lysates are incubated with streptavidin-coated donor beads, anti-mouse IgG acceptor beads, a biotinylated anti-ERK1/2 rabbit antibody, and a mouse antibody that recognizes ERK1/2 only when it is phosphorylated on Thr202 and Tyr204. The biotinylated ERK1/2 antibody will bind to both the streptavidin-coated donor beads and to ERK1/2 (regardless of its phosphorylation state), and the phospho-ERK1/2 antibody will bind to the acceptor beads and to ERK1/2 that is phosphorylated at Thr202/Tyr204. Excitation of the beads with laser light at 680 nm produces singlet oxygen, which is rapidly quenched unless the beads are in close proximity. When ERK is phosphorylated, both antibodies can bind the same protein, bringing the donor and acceptor beads into close proximity, producing a signal that can be measured at 580 nm. MEK phosphorylation is detected using a similar approach, only with antibodies directed against total MEK1/2 and MEK1/2 that is phosphorylated at Ser217 and Ser221.
(§2) Phospho-ERK AlphaScreen® assay. To determine the effects of compound treatment upon phosphorylation of ERK1/2, cells were plated in a 96-well dish and treated with an 8-point titration of compound for one hour at 37° C. before lysis. To detect pERK, cell lysates were incubated with streptavidin-coated AlphaScreen® donor beads, anti-mouse IgG AlphaScreen® acceptor beads, a biotinylated anti-ERK1/2 rabbit antibody, and a mouse antibody that recognizes ERK1/2 only when it is phosphorylated on Thr202 and Tyr204. The biotinylated ERK1/2 antibody binds to both the streptavidin-coated AlphaScreen® donor beads and to ERK1/2 (regardless of its phosphorylation state), and the phospho-ERK1/2 antibody binds to the acceptor beads and to ERK1/2 that is phosphorylated at Thr202/Tyr204. An increase in ERK1/2 phosphorylation at Thr202/Tyr204 brings the donor and acceptor AlphaScreen® beads into close proximity, generating a signal that can be quantified on an EnVision reader (Perkin Elmer).
(In general: Alpha assays give light when donor and acceptor beads are brought close together.)

The test system of test [2] is A375 (BRAF V600E) cell line. The test can be described thus: A375 P-ERK inhibition assay (AlphaScreen). Format: cell-based, human. The note with it: Homo sapiens, A-375; A375_P-ERK. The protocol: as §2
For a further test, the system named is B9 (HRAS Q61L) cell line. Description: B9 P-ERK cell activation assay (AlphaScreen). The test is classed as cell-based, mouse. The note with it: Mus musculus, P-ERK cell activation, B9, read-out: Cell activity (EC50 μM) B9_pERK. The protocol: as §1, §2
In a further test the target is T1, BRAF V600E (Homo sapiens, UniProt P15056, V600E).
T1 construct: purchased Upstate Biotechnology
The test can be described thus: BRAF V600E biochemical kinase activity assay (AlphaScreen, biotin-MEK1 substrate). The note with it: BRAF V600E biochemical inhibitory activity. The protocol:
Compounds to be tested are diluted in dimethyl sulfoxide to a concentration of 0.1 mM. These are serially diluted 15 μL into 30 μL of dimethyl sulfoxide seven times in 96 well plates for a total of 8 dilution points, and for each dilution point 1 μL is added to a well of an assay plate. […] The reaction is started with addition of 10 μL of 200 μM ATP (i.e. final 100 μM ATP). After incubation of the kinase reaction for 45 minutes at room temperature, 5 μL/well of Stop Solution is added (25 mM Hepes pH 7.5, 100 mM EDTA, 0.01% BSA with donor beads (Streptavidin coated beads, Perkin Elmer), acceptor beads (Protein A coated, Perkin Elmer), and anti-phosphor MEK1/2 antibody (CellSignal), each at final concentration 10 μg/mL). The plates are incubated for 3 hours at room temperature and read on Envision reader (Perkin Elmer). Phosphorylation of Mek1 results in binding of the anti-phosphor-MEK1/2antibody and association of the donor and acceptor beads such that signal correlates with kinase activity. The signal versus compound concentration is used to determine the IC50.
The in vitro RAF kinase activities were determined by measuring phosphorylation of a biotinylated substrate peptide as described previously (Tsai, J. et al. Proc Natl Acad Sci USA 105, 3041-3046 (2008)). Compounds of formula (I), e.g., compound A, was also tested against a panel of 287 kinases at concentrations of 1 μM in duplicate. Kinases inhibited by over 50% were followed up by IC50 determination. The 287 kinases represent all major branches of the kinome phylogenetic tree. The inhibition screen of 287 kinases was carried out under contract as complementary panels at Invitrogen (Life Technologies, Wis., USA) SelectScreen™ profiling service, DiscoverX (CA, USA) KINOMEScan™ service, and Reaction Biology Corporation (PA, USA) Kinase HotSpot℠ service.

T1 sequence (P15056 whole entry V600E): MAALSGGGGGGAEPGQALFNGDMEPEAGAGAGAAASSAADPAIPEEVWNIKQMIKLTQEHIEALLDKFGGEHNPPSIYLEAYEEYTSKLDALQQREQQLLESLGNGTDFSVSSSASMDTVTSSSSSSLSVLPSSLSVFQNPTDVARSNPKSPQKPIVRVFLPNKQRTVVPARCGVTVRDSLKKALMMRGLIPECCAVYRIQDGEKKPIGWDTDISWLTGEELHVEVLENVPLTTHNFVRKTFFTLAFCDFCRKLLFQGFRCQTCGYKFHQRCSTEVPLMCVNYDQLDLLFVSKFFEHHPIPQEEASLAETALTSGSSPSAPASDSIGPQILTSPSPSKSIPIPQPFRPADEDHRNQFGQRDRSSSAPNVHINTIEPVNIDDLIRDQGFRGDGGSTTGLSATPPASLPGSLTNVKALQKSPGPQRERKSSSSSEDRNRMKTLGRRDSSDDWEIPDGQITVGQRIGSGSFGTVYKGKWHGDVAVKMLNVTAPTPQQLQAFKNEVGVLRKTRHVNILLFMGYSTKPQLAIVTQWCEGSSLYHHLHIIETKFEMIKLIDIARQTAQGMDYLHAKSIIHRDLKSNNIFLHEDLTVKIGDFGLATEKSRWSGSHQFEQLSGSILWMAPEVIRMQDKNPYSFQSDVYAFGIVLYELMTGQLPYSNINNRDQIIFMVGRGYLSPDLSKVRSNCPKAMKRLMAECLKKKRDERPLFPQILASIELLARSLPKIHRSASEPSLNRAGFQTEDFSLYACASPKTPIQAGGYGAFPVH

As to `COC(=O)N[C@@H](C)CNc1nccc(-c2cn(C(C)C)nc2-c2cc(Cl)cc(NS(=O)(=O)N3CCCCC3)c2F)n1` [P-2181, methyl N-[(1S)-2-[[4-[3-[5-chloro-2-fluoro-3-(1-piperidylsulfonylamino)phenyl]-1-isopropyl-pyrazol-4-yl]pyrimidin-2-yl]amino]-1-methyl-ethyl]carbamate], the EC50 was 0.0001 to 1 µM in test [1] (class symbols) and above 10 µM with B9 (HRAS Q61L) cell line (numeric bounds). The IC50 (in test [2]; against BRAF V600E) was 0.0001 to 1 µM each time.
As to `CC(C)(C)c1nc(-c2cccc(NS(=O)(=O)N3CCCC3)c2F)c(-c2ncnc3[nH]ccc23)s1` [P-2122, N-[3-[2-tert-butyl-5-(7H-pyrrolo[2,3-d]pyrimidin-4-yl)thiazol-4-yl]-2-fluoro-phenyl]pyrrolidine-1-sulfonamide], the EC50 (in test [1] (numeric bounds); with B9 (HRAS Q61L) cell line (numeric bounds)) was above 10 µM in each case. In addition, the 50% inhibitory concentration (IC50) (in test [2]; at BRAF V600E) was 0.0001 to 1 µM throughout.
Take `CCC(C)S(=O)(=O)Nc1ccc(F)c(C(=O)c2c[nH]c3ncnc(NCC4CC4)c23)c1F` (stereo not drawn) [P-2056, N-[3-[4-(cyclopropylmethylamino)-7H-pyrrolo[2,3-d]pyrimidine-5-carbonyl]-2,4-difluoro-phenyl]butane-2-sulfonamide]: the EC50 (in test [1] (numeric bounds); in the test with B9 (HRAS Q61L) cell line (numeric bounds)) was above 10 µM in each case. Besides, the IC50 (in test [2]; against BRAF V600E) was 0.0001 to 1 µM throughout.
On to `O=C(c1c(F)ccc(NS(=O)(=O)C2CCC2)c1F)c1c[nH]c2ncncc12` [P-2030, N-[2,4-difluoro-3-(7H-pyrrolo[2,3-d]pyrimidine-5-carbonyl)phenyl]cyclobutanesulfonamide], for which the EC50 (in test [1] (numeric bounds); with B9 (HRAS Q61L) cell line (numeric bounds)) was above 10 µM throughout. Further, the IC50 (in test [2]; against BRAF V600E) was 1 to 10 µM in each case.
Take `O=C(c1cccc(NS(=O)(=O)N2CCCC2)c1F)c1c[nH]c2ncnc(NCCCN3CCOCC3)c12` [P-2111, N-[2-fluoro-3-[4-(3-morpholinopropylamino)-7H-pyrrolo[2,3-d]pyrimidine-5-carbonyl]phenyl]pyrrolidine-1-sulfonamide]: the EC50 (in test [1] (numeric bounds); in the test on B9 (HRAS Q61L) cell line (numeric bounds)) was above 10 µM throughout. Moreover, the IC50 (in test [2]; against BRAF V600E) was 0.0001 to 1 µM each time.
Turning to `COc1ccnc2[nH]cc(C(=O)c3c(F)ccc(NS(=O)(=O)C4CCC4)c3F)c12` [Compound P-2010, N-[2,4-difluoro-3-(4-methoxy-1H-pyrrolo[2,3-b]pyridine-3-carbonyl)phenyl]cyclobutanesulfonamide], the EC50 (in test [1] (numeric bounds); in the test on B9 (HRAS Q61L) cell line (numeric bounds)) was above 10 µM in each case. Further, the values for the IC50 (in test [2]; at BRAF V600E) were 1 to 10 µM and 0.0001 to 1 µM, respectively.
`COC(=O)N[C@@H](C)CNc1nccc(-c2nn(C(C)C)cc2-c2cc(Cl)cc(NS(=O)(=O)C3CC3)c2F)n1` [P-2170, methyl N-[(1S)-2-[[4-[4-[5-chloro-3-(cyclopropylsulfonylamino)-2-fluoro-phenyl]-1-isopropyl-pyrazol-3-yl]pyrimidin-2-yl]amino]-1-methyl-ethyl]carbamate]: the EC50 (in test [1] (class symbols); with B9 (HRAS Q61L) cell line (class symbols)) was 0.0001 to 1 µM throughout. In addition, the IC50 (in test [2]; on BRAF V600E) was 0.0001 to 1 µM each time.
As for `O=C(c1cccc(NS(=O)(=O)N2CCCC2)c1F)c1c[nH]c2ncnc(NCC(O)CO)c12` (stereo not drawn) [P-2096, N-[3-[4-(2,3-dihydroxypropylamino)-7H-pyrrolo[2,3-d]pyrimidine-5-carbonyl]-2-fluoro-phenyl]pyrrolidine-1-sulfonamide], the concentration giving a half-maximal response (EC50) (in test [1] (numeric bounds); in the test with B9 (HRAS Q61L) cell line (numeric bounds)) was above 10 µM each time. For the same compound, the IC50 in test [2] was above 10 µM; on BRAF V600E it was 0.0001 to 1 µM.
Take `COC(=O)C(CC(C)C)Nc1ncnc2[nH]cc(C(=O)c3cccc(NS(=O)(=O)N4CCCC4)c3F)c12` (stereo not drawn) [P-2107, methyl 2-[[5-[2-fluoro-3-(pyrrolidin-1-ylsulfonylamino)benzoyl]-7H-pyrrolo[2,3-d]pyrimidin-4-yl]amino]-4-methyl-pentanoate]: the EC50 (in test [1] (numeric bounds); with B9 (HRAS Q61L) cell line (numeric bounds)) was above 10 µM in each case. In addition, the IC50 lay within 1 to 10 µM in test [2] and 0.0001 to 1 µM on BRAF V600E.
Turning to `CC(C)Nc1ncnc2[nH]cc(C(=O)c3c(F)ccc(NS(=O)(=O)C4CCC4)c3F)c12` [P-2043, N-[2,4-difluoro-3-[4-(isopropylamino)-7H-pyrrolo[2,3-d]pyrimidine-5-carbonyl]phenyl]cyclobutanesulfonamide], the EC50 (in test [1] (numeric bounds); with B9 (HRAS Q61L) cell line (numeric bounds)) was above 10 µM throughout. Also, the IC50 (in test [2]; at BRAF V600E) was 1 to 10 µM in each case.
With `CCN(C)S(=O)(=O)Nc1cccc(C(=O)c2c[nH]c3ncnc(NCC4CC4)c23)c1F` [P-2064, 4-(cyclopropylmethylamino)-5-[3-[[ethyl(methyl)sulfamoyl]amino]-2-fluoro-benzoyl]-7H-pyrrolo[2,3-d]pyrimidine], the EC50 (in test [1] (numeric bounds); with B9 (HRAS Q61L) cell line (numeric bounds)) was above 10 µM each time. For the same compound, the IC50 (in test [2]; on BRAF V600E) was 0.0001 to 1 µM throughout.
Consider `O=C(c1cccc(NS(=O)(=O)N2CCCC2)c1F)c1c[nH]c2ncnc(NC3CCC3)c12` [P-2081, N-[3-[4-(cyclobutylamino)-7H-pyrrolo[2,3-d]pyrimidine-5-carbonyl]-2-fluoro-phenyl]pyrrolidine-1-sulfonamide], for which the EC50 (in test [1] (numeric bounds); in the test on B9 (HRAS Q61L) cell line (numeric bounds)) was above 10 µM throughout. For the same compound, the half-inhibitory concentration (IC50) (in test [2]; against BRAF V600E) was 0.0001 to 1 µM throughout.
Turning to `CC(C)Nc1ncnc2[nH]cc(C(=O)c3c(F)ccc(NS(=O)(=O)C4CCCCC4)c3F)c12` [P-2039, N-[2,4-difluoro-3-[4-(isopropylamino)-7H-pyrrolo[2,3-d]pyrimidine-5-carbonyl]phenyl]cyclohexanesulfonamide], the EC50 (in test [1] (numeric bounds); in the test with B9 (HRAS Q61L) cell line (numeric bounds)) was above 10 µM in each case. For the same compound, the IC50 (in test [2]; on BRAF V600E) was 0.0001 to 1 µM each time.
On to `O=C(c1cccc(NS(=O)(=O)N2CCCC2)c1F)c1c[nH]c2ncnc(NCCN3CCOCC3)c12` [P-2110, N-[2-fluoro-3-[4-(2-morpholinoethylamino)-7H-pyrrolo[2,3-d]pyrimidine-5-carbonyl]phenyl]pyrrolidine-1-sulfonamide], for which the EC50 (in test [1] (numeric bounds); in the test on B9 (HRAS Q61L) cell line (numeric bounds)) was above 10 µM in each case. Moreover, the IC50 (in test [2]; at BRAF V600E) was 0.0001 to 1 µM each time.
As for `Cc1cc2c(-c3sc(C(C)(C)C)nc3-c3cccc(NS(=O)(=O)N4CCCC4)c3F)ccnc2[nH]1` [P-2121, N-[3-[2-tert-butyl-5-(2-methyl-1H-pyrrolo[2,3-b]pyridin-4-yl)thiazol-4-yl]-2-fluoro-phenyl]pyrrolidine-1-sulfonamide], the EC50 (in test [1] (numeric bounds); in the test with B9 (HRAS Q61L) cell line (numeric bounds)) was above 10 µM each time. Further, the IC50 (in test [2]; at BRAF V600E) was 0.0001 to 1 µM throughout.

As a reminder, the EC50 is the midpoint of the concentration-response curve. For orientation: IC50 means the midpoint of a concentration-inhibition curve. Higher therefore signals weaker potency.

The values are drawn from patent US10421761B2, “Compounds for kinase modulation, and indications therefor” (Plexxikon Inc., priority 2013, dated 2019).
